Data reported in PMC3056882 (Steroids, 2011).
Like-named read-outs stand apart in the source and are kept apart here.

Tests used:
AKR1D1 [1] = target: T1, AKR1D1 (Homo sapiens, UniProt P51857); assay type: biochemical; conditions: for Km / kcat: fluorimetric, pH 6.0, 15 μM NADPH, 37 °C
T1 sequence (P51857 1-326): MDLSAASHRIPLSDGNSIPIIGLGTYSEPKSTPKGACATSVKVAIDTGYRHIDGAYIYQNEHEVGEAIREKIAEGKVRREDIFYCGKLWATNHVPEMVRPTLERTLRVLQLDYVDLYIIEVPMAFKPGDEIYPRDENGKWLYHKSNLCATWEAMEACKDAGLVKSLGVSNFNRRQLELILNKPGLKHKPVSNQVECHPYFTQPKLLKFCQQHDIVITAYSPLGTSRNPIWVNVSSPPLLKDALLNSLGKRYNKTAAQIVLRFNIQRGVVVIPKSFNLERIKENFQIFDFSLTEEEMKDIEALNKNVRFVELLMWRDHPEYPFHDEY

AKR1D1 [2] = target: T1, AKR1D1; assay: Inhibition of [4-14C]-testosterone reduction, radiometric assay; assay type: biochemical; conditions: for ability to inhibit the AKR1D1 dependent reduction of testosterone: result in words; for mode of inhibition of AKR1D1: C, competitive inhibition, NC, non-competitive inhibition
AKR1C1 = conditions: read-out: Ki AKR1C1; competitive (C); ref Bauman et al., 2005 [28]; cited from earlier work
AKR1C2 = conditions: read-out: Ki AKR1C2; competitive (C); ref Bauman et al., 2005 [28]; cited from earlier work
AKR1C3 = conditions: read-out: Ki AKR1C3; competitive (C); ref Bauman et al., 2005 [28]; cited from earlier work
AKR1D1 [3] = target: T1, AKR1D1; conditions: cited from earlier work
AKR1D1 [4] = target: T1, AKR1D1; assay: Dissociation constant of AKR1D1-NADPH binary complex by fluorescence titration; assay type: binding
aldose reductase AKR1B1 = conditions: read-out: Kd of NADPH for aldose reductase AKR1B1; cited from earlier work
[5] = substrate: C[C@]12CC[C@H]3[C@@H](CCC4=CC(=O)CC[C@@]43C)[C@@H]1CC[C@H]2O; assay type: biochemical, human; conditions: other: fluorimetric, pH 6.0, 15 μM NADPH, 37 °C
[6] = substrate: C[C@]12CCC(=O)C=C1CC[C@@H]1[C@@H]2[C@@H](O)C[C@]2(C=O)[C@@H](C(=O)CO)CC[C@@H]12; assay type: biochemical, human; conditions: other: fluorimetric, pH 6.0, 15 μM NADPH, 37 °C
[7] = substrate: C[C@]12CCC(=O)C=C1CC[C@@H]1[C@@H]2[C@@H](O)C[C@@]2(C)[C@H]1CC[C@]2(O)C(=O)CO; assay type: biochemical, human; conditions: other: fluorimetric, pH 6.0, 15 μM NADPH, 37 °C
[8] = read-out: Ki (substrate inhibition), dissociation constant for substrate from the E-NADP(H) complex, N.D. = not detected
[9] = ref Di Costanzo et al., 2008 [13]
[10] = dissociation constant for substrate from the E-NADP(H) complex, N.D. = not detected

For `CC(=O)[C@H]1CC[C@H]2[C@@H]3CCC4=CC(=O)CC[C@]4(C)[C@H]3CC[C@]12C` [progesterone], the Ki (AKR1D1 [1]) was less than 2 µM, the Km (AKR1D1 [1]) was less than 0.2 µM and the kcat (AKR1D1 [1]) was greater than 0.067 s⁻¹.

In the case of `COc1ccc2c(c1)c(CC(=O)O)c(C)n2C(=O)c1ccc(Cl)cc1` [Indomethacin], the Ki (AKR1D1 [2]) is reported as greater than 100 µM and the “ability to inhibit the AKR1D1 dependent reduction of testosterone” value (AKR1D1 [2]) is reported as “ineffective”.

In the case of `C[C@H](CCC(=O)O)[C@H]1CC[C@H]2[C@@H]3[C@H](O)C[C@@H]4C[C@H](O)CC[C@]4(C)[C@H]3CC[C@]12C` [Chenodeoxycholic acid], the Ki (AKR1C1) is listed as 8.3 µM, the Ki (AKR1D1 [2]) is listed as 3.2 µM and the “mode of inhibition of AKR1D1” value (AKR1D1 [2]) is listed as “non-competitive”. The Ki (AKR1C2) was 0.017 µM and the Ki (AKR1C3) was 10 µM.

For `O=C(O)c1ccc(C(=O)c2ccccc2)cc1` [4-Benzoylbenzoic acid], the Ki (AKR1C1) is listed as 12.5 µM, the Ki (AKR1D1 [2]) is listed as greater than 100 µM and the “ability to inhibit the AKR1D1 dependent reduction of testosterone” value (AKR1D1 [2]) is listed as “ineffective”. The Ki (AKR1C2) was 13.3 µM and the Ki (AKR1C3) was 1.9 µM.

Molecule `C[C@]12CC[C@H]3[C@@H](CCC4=CC(=O)CC[C@@]43C)[C@@H]1CC[C@H]2O` [Epitestosterone] has a Ki (AKR1D1 [1]) of 10 ± 2.2 µM.

With `C[C@]12CCC(=O)C=C1CC[C@@H]1[C@@H]2CC[C@]2(C)C(=O)CC[C@@H]12` [Δ^4-Androstene-3,17-dione] the Km (AKR1D1 [1]) was 0.9 ± 0.2 µM, the kcat (AKR1D1 [1]) was 0.1 ± 0.013 s⁻¹ and the Ki (AKR1D1 [1]; [8]) was 4.3 ± 1.3 µM.

For `C[C@]12CC[C@H]3[C@@H](CCC4=CC(=O)CC[C@@]43C)[C@@H]1CC[C@@H]2O` [Testosterone], the Ki (AKR1D1 [3]; read-out: Ki (substrate inhibition), ref Di Costanzo et al., 2008 [13]) is listed as 14.5 ± 5.8 µM, the Km (AKR1D1 [3]; [9]) is listed as 2.7 ± 1.2 µM and the kcat (AKR1D1 [3]; [9]) is listed as 0.14 ± 0.0333 s⁻¹.

In the case of NADPH, the “Kd fold higher than AKR1B1” value (AKR1D1 [4]; AKR1D1 vs AKR1B1 (human aldose reductase)) is listed as 5 fold, the Kd (AKR1D1 [4]; read-out: dissociation constant (Kd) of NADPH for wild-type AKR1D1, fluorescence titration, 10 mM potassium phosphate pH 6.0, 37 °C) is listed as 0.043 ± 0.016 µM and the Kd (aldose reductase AKR1B1) is listed as 0.009 µM.

`CC(C)CCC[C@@H](C)[C@H]1CC[C@H]2[C@@H]3CCC4=CC(=O)CC[C@]4(C)[C@H]3CC[C@]12C` [Cholestenone] gave a Km (AKR1D1 [1]) of 0.3 ± 0.1 µM and a kcat (AKR1D1 [1]) of 0.01 ± 0.00067 s⁻¹.

`C[C@]12CC[C@H]3[C@@H](CCC4=CC(=O)CC[C@@]43C)[C@@H]1CC[C@@H]2C(=O)CO` [11-deoxycorticosterone] showed a Ki (AKR1D1 [1]) of less than 2 µM, a Km (AKR1D1 [1]) of less than 0.2 µM and a kcat (AKR1D1 [1]) greater than 0.067 s⁻¹.

`CC(C)CCC[C@@H](C)[C@H]1CC[C@H]2[C@@H]3[C@H](O)CC4=CC(=O)CC[C@]4(C)[C@H]3CC[C@]12C` [4-Cholesten-7α-ol-3-one] gave a Km (AKR1D1 [1]) of 0.8 ± 0.2 µM and a kcat (AKR1D1 [1]) of 0.0333 ± 0.0017 s⁻¹.

`C[C@]12CC[C@H]3[C@@H](CCC4=CC(=O)CC[C@@H]43)[C@@H]1CC[C@@H]2O` [4-Estren-17β-ol-3-one] showed a Km (AKR1D1 [1]) of 3 ± 0.5 µM, a kcat (AKR1D1 [1]) of 0.045 ± 0.0033 s⁻¹ and a Ki (AKR1D1 [1]; [8]) of 18.6 ± 3.4 µM.

In the case of `C[C@]12CCC(=O)C=C1CC[C@@H]1[C@@H]2[C@@H](O)C[C@@]2(C)[C@H]1CC[C@]2(O)C(=O)CO` [Cortisol], the “Ki (substrate inhibition)” value (AKR1D1 [1]; [10]) is reported as “do not exhibit substrate inhibition”.

For `C[C@H](CCC(=O)O)[C@H]1CC[C@H]2[C@@H]3[C@@H](O)C[C@@H]4C[C@H](O)CC[C@]4(C)[C@H]3CC[C@]12C` [Ursodeoxycholic acid], the Ki (AKR1C1) is listed as 4.9 µM, the Ki (AKR1D1 [2]) is listed as 9.8 µM and the “mode of inhibition of AKR1D1” value (AKR1D1 [2]) is listed as “non-competitive”. For the same molecule, the Ki (AKR1C2) was 0.011 µM and the Ki (AKR1C3) was 1.3 µM.

Molecule `C[C@]12CCC(=O)C=C1CC[C@@H]1[C@@H]2[C@@H](O)C[C@]2(C=O)[C@@H](C(=O)CO)CC[C@@H]12` [Aldosterone] has a Ki (AKR1D1 [1]) of 66.5 ± 15.7 µM.

For `C[C@]12CC[C@H]3[C@@H](CCC4=CC(=O)C=C[C@@]43C)[C@@H]1CC[C@@H]2O` [1,4-Androstadien-17β-ol-3-one], the Km (AKR1D1 [3]; ref Drury et al., 2009 [14]) is given as 3.2 ± 0.2 µM and the kcat (AKR1D1 [3]; ref Drury et al., 2009 [14]) is given as 0.035 ± 0.0017 s⁻¹.

With `C[C@]12C[C@H](O)[C@H]3[C@@H](CCC4=CC(=O)CC[C@@]43C)[C@@H]1CC[C@@H]2C(=O)CO` [Corticosterone] the “Ki (substrate inhibition)” value (AKR1D1 [1]; [10]) was “do not exhibit substrate inhibition”, the Km (AKR1D1 [1]) was 2.2 ± 0.5 µM and the kcat (AKR1D1 [1]) was 0.0317 ± 0.0017 s⁻¹.

For `Cc1cccc(Nc2ccccc2C(=O)O)c1C` [Mefenamic acid], the Ki (AKR1C1) is given as 0.8 µM, the Ki (AKR1D1 [2]) is given as greater than 100 µM and the “ability to inhibit the AKR1D1 dependent reduction of testosterone” value (AKR1D1 [2]) is given as “ineffective”.

`C[C@]12CCC(=O)C=C1CC[C@@H]1[C@@H]2C(=O)C[C@@]2(C)[C@H]1CC[C@]2(O)C(=O)CO` [Cortisone] gave a Km (AKR1D1 [1]) of 15.1 ± 0.3 µM and a kcat (AKR1D1 [1]) of 0.195 ± 0.0017 s⁻¹.

B1: AKR1D1 (Homo sapiens) (protein)
chain: T1 sequence (P51857 1-326)
In the case of B1, the Km [5] is reported as 2.9 ± 0.6 µM, the kcat [5] is reported as 0.1 ± 0.0117 s⁻¹ and the kcat/Km [5] is reported as 34800 M⁻¹ s⁻¹. For the same molecule, the Km [6] was 2.5 ± 0.4 µM, the kcat [6] was 0.15 ± 0.01 s⁻¹ and the kcat/Km [6] was 61300 M⁻¹ s⁻¹. For the same molecule, the Km [7] was 13.1 ± 1.8 µM, the kcat [7] was 0.045 ± 0.00167 s⁻¹ and the kcat/Km [7] was 3500 M⁻¹ s⁻¹.
